Tests used:
Assay in all cases: Enzymatic kinase assay (filter-binding / flashplate, 33P incorporation)
Format in all cases: biochemical
Conditions in all cases: enzymatic kinase selectivity
Aurora A = target: T1, Aurora A (Homo sapiens, UniProt O14965)
T1 sequence (O14965 1-403): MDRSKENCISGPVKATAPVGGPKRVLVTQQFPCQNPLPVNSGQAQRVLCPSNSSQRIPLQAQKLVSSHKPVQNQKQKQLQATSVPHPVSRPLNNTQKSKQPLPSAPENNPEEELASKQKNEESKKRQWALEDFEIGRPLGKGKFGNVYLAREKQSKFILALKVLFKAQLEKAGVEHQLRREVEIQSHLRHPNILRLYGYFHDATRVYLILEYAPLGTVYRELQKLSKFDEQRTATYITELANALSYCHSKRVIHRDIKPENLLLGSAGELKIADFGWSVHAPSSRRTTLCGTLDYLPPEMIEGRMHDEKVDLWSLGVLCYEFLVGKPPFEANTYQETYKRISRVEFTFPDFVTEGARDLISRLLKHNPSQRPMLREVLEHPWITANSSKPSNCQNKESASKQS
Description: (§1) Two methods were used to analyze phosphorylated peptides and proteins produced by the listed tyrosine and serine/threonine-specific protein kinases: either using a filter-binding assay (FB), or using a flashplate assay (FP). The activities of protein kinases were assayed in the presence or absence of inhibitors, by measuring the incorporation of ^33P from [γ^33P]ATP into appropriate substrates.
(§2) 96-well polypropylene microplates were used to assay the activity in the FB mode. To determine the inhibitory activity of compounds 10 μL of compound dilutions were pipetted into 96-well plates followed by the addition of 10 μL of assay mix and 10 μL of individual enzymes. With the addition of the enzymes the reactions were initiated and continued at RT. The reactions were stopped by the addition of 50 μL of a 125 mM EDTA solution pH 8.0. The final concentration of DMSO in the enzyme assays was 1%.
(§3) Flashplates are available as 96-well standard (STFPs) or as streptavidin-(SAFPs) or nickel coated FPs (NiFPs) from Perkin Elmer. STFPs are 96-well polystyrene microplates in which the interior of each well is permanently coated with a thin layer of polystyrene-based scintillant. Streptavidin flashplates (SAFP) are 96 or 384-well STFPs coated with streptavidin. SAFPs are suitable for a wide variety of assay applications which utilize biotinylated capture molecules. NiFP or nickel chelate flashplates are 96- or 384-well STFPs coated with nickel chelate. NiFPs are designed for in-plate, radiometric assays which utilize 4- or 6-histidine tagged proteins and peptides.
(§4) All kinase assays were performed in STFPs for 60 mins at RT and stopped with 50 μL of 0.5% H3PO4 except PKA which were carried out in polypropylene 96- and 384-well plates, respectively. PKA assays were stopped with 50 μL of 125 mM EDTA (pH 8.0) and 50 μL were transferred to either SAFPs or NIFPs to capture the biotinylated or histidine tagged peptides phosphorylated by PKA (SAFP) or by NiFPs. All wells were then washed three times with 200 μL of 0.5% H3PO4 and the plates were dried at room temperature. The plates were sealed and counted in a microplate scintillation counter (TopCount NXT, TopCount NXT HTS). The final concentration of DMSO in the enzyme assays was 1%.

CDK2A = CDK2A (Homo sapiens, UniProt P24941)
Description: as §1, §2, §3, §4

COT1 = COT1 (Homo sapiens, UniProt P41279)
Chain of COT1 (P41279 whole entry): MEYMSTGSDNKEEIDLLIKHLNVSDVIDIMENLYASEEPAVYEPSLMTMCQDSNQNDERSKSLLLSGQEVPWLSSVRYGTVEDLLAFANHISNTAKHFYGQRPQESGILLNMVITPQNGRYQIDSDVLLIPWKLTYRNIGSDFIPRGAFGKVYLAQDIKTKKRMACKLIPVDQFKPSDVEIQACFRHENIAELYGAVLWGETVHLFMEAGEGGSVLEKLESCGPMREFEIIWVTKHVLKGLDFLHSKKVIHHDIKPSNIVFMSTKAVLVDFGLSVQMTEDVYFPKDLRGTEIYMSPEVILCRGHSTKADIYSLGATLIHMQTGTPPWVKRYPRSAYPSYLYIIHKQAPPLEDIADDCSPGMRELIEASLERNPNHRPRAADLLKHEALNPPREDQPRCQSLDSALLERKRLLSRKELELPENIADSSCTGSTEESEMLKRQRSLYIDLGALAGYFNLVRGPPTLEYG
Description: as §1, §2, §3, §4

ERK2 = ERK2 (Homo sapiens, UniProt P28482)
Chain of ERK2 (P28482 whole entry, species assumed): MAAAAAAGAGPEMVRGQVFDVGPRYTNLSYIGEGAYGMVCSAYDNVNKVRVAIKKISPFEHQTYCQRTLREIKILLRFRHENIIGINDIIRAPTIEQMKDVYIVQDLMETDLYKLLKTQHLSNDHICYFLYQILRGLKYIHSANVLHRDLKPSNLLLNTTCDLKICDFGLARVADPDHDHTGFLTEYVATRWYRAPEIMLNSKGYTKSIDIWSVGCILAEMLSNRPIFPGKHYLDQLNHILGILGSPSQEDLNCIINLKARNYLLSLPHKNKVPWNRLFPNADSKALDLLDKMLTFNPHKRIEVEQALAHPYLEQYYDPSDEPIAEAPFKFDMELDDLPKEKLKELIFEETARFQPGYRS
Description: as §1, §2, §3, §4

EphA4 = EphA4 (Homo sapiens, UniProt P54764)
Chain of EphA4 (P54764 20-986, species assumed): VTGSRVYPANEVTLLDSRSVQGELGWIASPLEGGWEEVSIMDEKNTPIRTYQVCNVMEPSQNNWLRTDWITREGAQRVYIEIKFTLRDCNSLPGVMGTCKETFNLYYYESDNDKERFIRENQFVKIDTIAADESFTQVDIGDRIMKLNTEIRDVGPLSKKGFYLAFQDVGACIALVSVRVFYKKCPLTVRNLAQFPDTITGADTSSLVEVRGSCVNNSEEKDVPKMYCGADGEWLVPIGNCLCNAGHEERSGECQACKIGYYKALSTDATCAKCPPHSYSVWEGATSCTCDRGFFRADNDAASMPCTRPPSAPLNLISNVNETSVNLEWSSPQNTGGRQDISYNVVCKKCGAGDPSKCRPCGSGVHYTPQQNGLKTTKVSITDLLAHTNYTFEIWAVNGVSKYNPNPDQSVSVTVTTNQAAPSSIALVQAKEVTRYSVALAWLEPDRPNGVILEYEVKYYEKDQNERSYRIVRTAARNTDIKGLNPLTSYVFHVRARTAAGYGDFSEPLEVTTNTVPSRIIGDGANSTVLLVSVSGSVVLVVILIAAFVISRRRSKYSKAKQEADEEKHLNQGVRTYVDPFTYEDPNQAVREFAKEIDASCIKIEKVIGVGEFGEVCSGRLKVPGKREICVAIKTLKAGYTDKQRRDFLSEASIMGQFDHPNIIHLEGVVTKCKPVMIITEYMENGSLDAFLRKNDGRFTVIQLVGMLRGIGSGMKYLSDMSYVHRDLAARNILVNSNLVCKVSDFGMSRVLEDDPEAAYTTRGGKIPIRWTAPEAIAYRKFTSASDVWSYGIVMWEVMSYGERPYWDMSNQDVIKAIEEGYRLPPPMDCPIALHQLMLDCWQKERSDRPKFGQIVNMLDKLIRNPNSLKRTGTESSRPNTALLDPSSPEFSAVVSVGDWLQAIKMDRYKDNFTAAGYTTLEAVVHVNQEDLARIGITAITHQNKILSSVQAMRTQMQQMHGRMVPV
Description: as §1, §2, §3, §4

FGFR-4 = FGFR-4 (Homo sapiens, UniProt P22455)
Chain of FGFR-4 (P22455 22-802, species assumed): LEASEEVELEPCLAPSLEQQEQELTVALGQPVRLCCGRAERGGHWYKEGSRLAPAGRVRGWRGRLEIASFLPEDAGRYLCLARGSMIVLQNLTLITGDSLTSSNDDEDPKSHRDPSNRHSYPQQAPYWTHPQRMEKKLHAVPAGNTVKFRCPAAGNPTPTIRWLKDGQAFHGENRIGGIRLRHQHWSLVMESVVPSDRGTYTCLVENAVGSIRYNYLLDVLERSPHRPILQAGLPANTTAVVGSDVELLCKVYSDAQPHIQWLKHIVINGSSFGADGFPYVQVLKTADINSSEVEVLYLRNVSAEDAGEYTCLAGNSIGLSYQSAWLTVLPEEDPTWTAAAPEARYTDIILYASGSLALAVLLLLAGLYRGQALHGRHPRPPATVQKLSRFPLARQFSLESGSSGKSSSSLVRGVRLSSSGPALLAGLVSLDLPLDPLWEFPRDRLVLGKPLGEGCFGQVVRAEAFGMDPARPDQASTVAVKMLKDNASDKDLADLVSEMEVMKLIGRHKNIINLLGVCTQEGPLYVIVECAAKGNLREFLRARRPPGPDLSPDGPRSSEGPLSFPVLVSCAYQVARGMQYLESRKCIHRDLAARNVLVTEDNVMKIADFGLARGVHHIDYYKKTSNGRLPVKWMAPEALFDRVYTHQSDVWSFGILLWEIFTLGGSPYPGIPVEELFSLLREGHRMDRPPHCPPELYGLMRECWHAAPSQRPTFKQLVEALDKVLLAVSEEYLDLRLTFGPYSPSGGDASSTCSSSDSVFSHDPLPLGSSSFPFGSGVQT
Description: as §1, §2, §3, §4

HER2 = HER2 (Homo sapiens, UniProt P04626)
Description: as §1, §2, §3, §4

JAK2 = JAK2 (Homo sapiens, UniProt O60674)
Description: as §1, §2, §3, §4

KDR = KDR (Homo sapiens, UniProt P35968)
Description: as §1, §2, §3, §4

LCK = LCK (Homo sapiens, UniProt P06239)
Chain of LCK (P06239 whole entry, species assumed): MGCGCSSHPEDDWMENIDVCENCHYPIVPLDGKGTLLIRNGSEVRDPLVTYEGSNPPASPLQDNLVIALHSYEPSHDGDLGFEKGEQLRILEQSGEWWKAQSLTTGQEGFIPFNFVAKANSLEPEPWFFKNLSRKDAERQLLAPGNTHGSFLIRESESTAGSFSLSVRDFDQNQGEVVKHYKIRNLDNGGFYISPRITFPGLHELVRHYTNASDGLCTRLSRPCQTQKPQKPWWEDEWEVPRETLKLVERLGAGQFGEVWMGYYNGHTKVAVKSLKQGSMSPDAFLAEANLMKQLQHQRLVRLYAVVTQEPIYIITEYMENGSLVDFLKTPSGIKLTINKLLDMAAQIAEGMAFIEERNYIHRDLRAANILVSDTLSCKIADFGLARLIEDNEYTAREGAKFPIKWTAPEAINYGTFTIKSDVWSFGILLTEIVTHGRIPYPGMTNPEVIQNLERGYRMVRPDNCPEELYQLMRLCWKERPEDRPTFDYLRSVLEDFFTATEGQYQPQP
Description: as §1, §2, §3, §4

MK2 = MK2 (Homo sapiens, UniProt P49137)
Chain of MK2 (P49137 whole entry, species assumed): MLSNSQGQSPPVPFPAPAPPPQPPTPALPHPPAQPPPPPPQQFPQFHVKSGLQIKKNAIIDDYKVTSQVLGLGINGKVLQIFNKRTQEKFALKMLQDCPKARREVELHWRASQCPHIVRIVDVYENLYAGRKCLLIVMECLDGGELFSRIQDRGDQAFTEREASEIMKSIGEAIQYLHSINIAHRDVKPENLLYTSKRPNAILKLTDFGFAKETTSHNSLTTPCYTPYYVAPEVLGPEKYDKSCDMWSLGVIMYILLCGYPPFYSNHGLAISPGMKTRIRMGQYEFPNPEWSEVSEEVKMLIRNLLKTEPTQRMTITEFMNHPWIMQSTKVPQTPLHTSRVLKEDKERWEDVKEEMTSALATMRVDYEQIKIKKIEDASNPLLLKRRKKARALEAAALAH
Description: as §1, §2, §3, §4

P38a = P38a (Homo sapiens, UniProt Q16539)
Chain of P38a (Q16539 whole entry): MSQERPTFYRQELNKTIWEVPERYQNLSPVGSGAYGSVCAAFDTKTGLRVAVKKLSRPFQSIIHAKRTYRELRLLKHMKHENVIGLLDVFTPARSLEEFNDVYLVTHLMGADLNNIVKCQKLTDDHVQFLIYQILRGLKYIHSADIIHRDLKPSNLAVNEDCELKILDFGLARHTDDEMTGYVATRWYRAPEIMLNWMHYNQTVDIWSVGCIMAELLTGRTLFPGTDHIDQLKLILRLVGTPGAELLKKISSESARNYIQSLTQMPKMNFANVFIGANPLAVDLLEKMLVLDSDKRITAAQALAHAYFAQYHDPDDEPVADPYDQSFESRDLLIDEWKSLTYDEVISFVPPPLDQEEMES
Description: as §1, §2, §3, §4

PDGFRa = PDGFRa (Homo sapiens, UniProt P16234)
Description: as §1, §2, §3, §4

RET = RET (Homo sapiens, UniProt P07949)
Description: as §1, §2, §3, §4

TYK2 = TYK2 (Homo sapiens, UniProt P29597)
Chain of TYK2 (P29597 whole entry, species assumed): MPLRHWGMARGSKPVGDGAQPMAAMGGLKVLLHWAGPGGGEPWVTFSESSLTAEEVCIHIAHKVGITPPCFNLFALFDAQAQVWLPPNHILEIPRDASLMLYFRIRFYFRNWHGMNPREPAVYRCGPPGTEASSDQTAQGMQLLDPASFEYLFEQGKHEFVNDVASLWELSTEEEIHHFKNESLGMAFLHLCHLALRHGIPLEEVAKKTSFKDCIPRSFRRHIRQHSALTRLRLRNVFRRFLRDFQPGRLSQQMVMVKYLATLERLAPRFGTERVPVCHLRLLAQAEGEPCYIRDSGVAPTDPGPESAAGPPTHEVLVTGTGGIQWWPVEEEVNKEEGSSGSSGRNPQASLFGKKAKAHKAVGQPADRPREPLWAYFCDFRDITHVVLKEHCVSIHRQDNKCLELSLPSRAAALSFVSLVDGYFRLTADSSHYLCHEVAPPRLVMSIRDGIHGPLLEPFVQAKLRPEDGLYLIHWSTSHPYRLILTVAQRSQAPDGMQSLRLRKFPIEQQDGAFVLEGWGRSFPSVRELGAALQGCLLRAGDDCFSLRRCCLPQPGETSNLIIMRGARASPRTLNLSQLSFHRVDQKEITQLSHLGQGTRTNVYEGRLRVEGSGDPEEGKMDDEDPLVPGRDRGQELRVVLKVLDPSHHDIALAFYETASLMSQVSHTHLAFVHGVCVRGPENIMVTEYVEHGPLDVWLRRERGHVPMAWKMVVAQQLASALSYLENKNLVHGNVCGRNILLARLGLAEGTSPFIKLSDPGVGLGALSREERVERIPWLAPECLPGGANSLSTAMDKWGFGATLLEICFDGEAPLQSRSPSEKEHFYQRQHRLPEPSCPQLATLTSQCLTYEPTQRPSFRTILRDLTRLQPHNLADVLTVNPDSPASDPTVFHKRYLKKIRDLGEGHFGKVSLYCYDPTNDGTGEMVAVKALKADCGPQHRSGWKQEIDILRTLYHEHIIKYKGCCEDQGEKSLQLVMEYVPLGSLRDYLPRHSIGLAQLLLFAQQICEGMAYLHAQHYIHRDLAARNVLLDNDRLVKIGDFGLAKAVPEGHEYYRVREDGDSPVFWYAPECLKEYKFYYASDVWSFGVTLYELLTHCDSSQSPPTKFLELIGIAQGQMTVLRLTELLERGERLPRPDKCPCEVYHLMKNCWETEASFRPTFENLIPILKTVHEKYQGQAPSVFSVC
Description: as §1, §2, §3, §4

cABLT315 = cABLT315 (Homo sapiens, UniProt P00519, T315I)
Description: as §1, §2, §3, §4

cKIT = cKIT (Homo sapiens, UniProt P10721)
Description: as §1, §2, §3, §4

cMET = cMET (Homo sapiens, UniProt P08581)
Description: as §1, §2, §3, §4

Row | IC50 (Aurora A) [nM] | IC50 (CDK2A) [nM] | IC50 (COT1) [nM] | IC50 (ERK2) [nM] | IC50 (EphA4) [nM] | IC50 (FGFR-4) [nM] | IC50 (HER2) [nM] | IC50 (JAK2) [nM] | IC50 (KDR) [nM] | IC50 (LCK) [nM] | IC50 (MK2) [nM] | IC50 (P38a) [nM] | IC50 (PDGFRa) [nM] | IC50 (RET) [nM] | IC50 (TYK2) [nM] | IC50 (cABLT315) [nM] | IC50 (cKIT) [nM] | IC50 (cMET) [nM] | SMILES
1 | 8800 | > 10000 | > 10000 | > 10000 | > 10000 | 8900 | > 10000 | > 10000 | 250 | 6150 | > 10000 | > 10000 | > 10000 | 760 | > 10000 | 4350 | > 10000 | > 10000 | Nc1ncnc2c1c(-c1ccc3c(c1)OC(c1ccccc1)CC3)cn2C1CC(O)(CO)C1 (single isomer, unassigned) [Example 26]
2 | > 10000 | > 10000 | > 10000 | > 10000 | > 10000 | > 10000 | > 10000 | > 10000 | 240 | 3800 | > 10000 | > 10000 | > 10000 | 410 | > 10000 | > 10000 | 6000 | > 10000 | CC(=O)N1CCN([C@H]2C[C@@H](n3cc(-c4ccc5c(c4)OC(c4ccccc4)CC5)c4c(N)ncnc43)C2)CC1 (relative stereo) [Example 38, 1-(4-{cis-3-[4-Amino-5-(2-phenyl-chroman-7-yl)-pyrrolo[2,3-d]pyrimidin-7-yl]-cyclobutyl}-piperazin-1-yl)-ethanone]
3 | 4000 | > 10000 | > 10000 | > 10000 | > 10000 | > 10000 | > 10000 | > 10000 | 110 | 3600 | > 10000 | > 10000 | 770 | 25 | > 10000 | > 10000 | 770 | > 10000 | Nc1ncnc2c1c(-c1ccc3c(c1)OC(c1ccccc1)C=C3)cn2[C@H]1C[C@@H](CN2CCS(=O)(=O)CC2)C1 (mixture of isomers) [Example 21, (R,S)-7-[cis-3-(1,1-Dioxo-1-thiomorpholin-4-ylmethyl)-cyclobutyl]-5-(2-phenyl-2H-chromen-7-yl)-7H-pyrrolo[2,3-d]pyrimidin-4-ylamine]
4 | 4300 | > 10000 | > 10000 | > 10000 | > 10000 | > 10000 | > 10000 | > 10000 | 160 | 4460 | > 10000 | > 10000 | 1200 | 360 | > 10000 | 8000 | 3200 | > 10000 | CC(=O)NC[C@H]1C[C@@H](n2cc(-c3ccc4c(c3)OC(c3ccccc3)CC4)c3c(N)ncnc32)C1 (mixture of isomers) [Example 16, (R,S)—N-{cis-3-[4-Amino-5-(2-phenyl-chroman-7-yl)-pyrrolo[2,3-d]pyrimidin-7-yl]-cyclobutylmethyl}-acetamide]
